From patent publication US6399658B1, “Composition containing ascorbic acid” (Sumitomo Pharmaceuticals Co., Ltd., priority 1996, dated 2002)

How the values were obtained:
3T3-L1 adipocytes = assay: Lactic acid increase induced by metformin hydrochloride in 3T3-L1 adipocytes; assay type: cell-based, mouse; details: for Lactic acid levels: additive 40 mM together with metformin hydrochloride 10 mM, medium after 24 hr, 30% O2/5% CO2
Method: Then the cells were differentiated to adipocytes according to the following procedure. […] The medium was changed with the same fresh medium every 48 hr until experiments. Lactic acid levels were measured by enzyme assay on lactate dehydrogenase and glutamate pyruvate transaminase, using Lactate Test BMY (Boehringer Mannheim). To the plate of the differentiated 3T3-L1 cells were added metoformin hydrochloride (10 mM) and various acids (40 mM), and the differentiated 3T3-L1 cells were incubated under 30% O2/5% CO2 condition for 24 hr. Lactic acid levels in the medium were measured.

KKAy mice [1] = assay: Reduction of blood sugar levels in diabetic model animals (KKAy mice), metformin hydrochloride + L-ascorbic acid study; assay type: in vivo, mouse; details: p.o. twice a day for 5 days; for Blood glucose levels: 2 hr after last administration, metformin hydrochloride 600, L-ascorbic acid 2900, metformin hydrochloride 600 + L-ascorbic acid 2900 mg/kg/dose
Text: . The experimental schedule was as follows.

[2] = test system: rat hepatocytes primary culture; assay: Inhibition of gluconeogenesis in rat hepatocytes primary culture; assay type: cell-based; details: 6 hr; for Glucose levels in the medium: Hanks solution containing 0.1% fructose
Method: Hepatocytes were isolated from a male Wistar rat. The isolated hepatocytes were grown on gelatin coated 24-well plate (3×10^5 cells/well) in Williams E medium containing 10 nM dexamethasone and 5% fetal calf serum under the 37° C., 5% CO2/95% air condition for 24 hr.
After the plates of hepatocytes primary culture were washed by phosphate buffer twice, the medium were changed to Hanks solution containing 0.1% fructose (depletion glucose). […] Glucose levels (mg/dL) in the medium were measured.

KKAy mice [3] = assay: Reduction of blood sugar levels in diabetic model animals (KKAy mice), metformin L-ascorbate study; details: p.o. twice a day for 5 days; for Blood glucose levels: 2 hr after last administration, metformin hydrochloride 600, L-ascorbic acid 800, metformin L-ascorbate 1400 mg/kg/dose
5/6 nephrectomy rats = details: p.o. twice a day for 4 days
Text: After 5-week old Wistar rats were acclimatized for 7 to 10 days, 2/3 of left kidney were removed. After the rats were bred and observed for 7 days, all right kidney was removed. After the rats were bred and observed for 7 to 10 days, the rats were used for experiments.
The experimental schedule was as follows. 5/6 Nephrectomy rats were divided into four groups according to their weight, blood urea nitrogen levels and serum creatinine levels after preliminary breeding and observation after purchase. […] The volume of administrated liquids was 5 mL/kg/dose. […] Blood was collected from tail vein under ether anesthetics at the day 5, and the blood lactic acid levels were measured.

SMILES	Lactic acid levels (3T3-L1 adipocytes) [mg/dL]	Blood glucose levels (KKAy mice [1]) [mg/dL]	Blood glucose levels (KKAy mice [3]) [mg/dL]	Effect for reducing blood glucose levels (in words) (KKAy mice [3])	further results
O=C(O)CC(O)(CC(=O)O)C(=O)O [Citric acid, citric acid]	155	–	–	–	–
O=C1O[C@H]([C@@H](O)CO)C(O)=C1O [L-ascorbic acid]	73	367.0 ± 45.3	392.8 ± 45.3	–	Effect on lactic acid increase induced by metformin hydrochloride (in words) (3T3-L1 adipocytes; 40 mM with metformin hydrochloride 10 mM, 24 hr): prevented lactic acid increase induced by metformin hydrochloride; Glucose levels in the medium ([2]; 1 mM (each 1 mM for the combination)): 14.6 mg/dL; Glucose levels in the medium ([2]; 3 mM (each 3 mM for the combination)): 10.6 mg/dL; Effect on gluconeogenesis (in words) ([2]; 1 or 3 mM): Gluconeogenesis was reduced
O=C(O)CC(O)C(=O)O (stereo not shown) [Malic acid, malic acid]	143	–	–	–	–
CN(C)C(=N)N=C(N)N.O=C1OC(C(O)CO)C(O)=C1O [Metformin L-ascorbate]	–	–	270.3 ± 78.2	Significant effects for reducing blood glucose levels	Blood lactic acid levels (5/6 nephrectomy rats; blood at day 5, metformin hydrochloride 250 mg/kg/dose, metformin L-ascorbate 461 mg/kg/dose, metformin hydrochloride 250 + L-ascorbic acid 266 mg/kg/dose (same moles of metformin)): 40.2 ± 6.2 (†)(*) mg/dL; Blood lactic acid levels compared with metformin hydrochloride group (in words) (5/6 nephrectomy rats; day 5): significantly lower than metformin hydrochloride group; Blood lactic acid levels compared with vehicle group (in words) (5/6 nephrectomy rats; day 5): significantly higher than vehicle group
CN(C)C(=N)NC(=N)N.Cl [Metformin hydrochloride, 1,1-dimethylbiguanide hydrochloride]	–	286.5 ± 63.1	247.6 ± 30.2	Significant effects for reducing blood glucose levels	Effect for reducing blood glucose levels (in words) (KKAy mice [1]): Significant effects for reducing blood glucose levels
O=C(O)CCC(=O)O [Succinic acid, succinic acid]	145	–	–	–	–
